≈ marks a conversion by molar mass, not a printed value. Where “and” joins values, the source holds several entries; their conditions need not be identical. Equal entries are not always repeated. Entries after “also recorded” stand apart in the source; their conditions may differ. Where two headings read alike, the source gives them in different places. Marks after values point to notes of the source that are not given here.
Columns and labels:
[1] = tested on: B16-F10 cells; test: Melanin elimination in forskolin/8-MOP pre-treated B16-F10 cells; format: cell-based, Mus musculus (mouse); details: 72 hours, B16-F10 cells pre-treated with forskolin and 8-MOP; for % Melanin Elimination, skin treatment compound/plant extract: 100 μg/mL, average of two wells
Protocol: (§1) The effects of the present skin treatment compounds and plant extracts were evaluated in vitro using a B16-F10 (ATCC# CRL-6475) cell model. The B16-F10 cell model is a Mus musculus (mouse) melanoma skin cell line. The skin treatment compounds and plant extracts were evaluated for cell toxicity, inhibition of melanin synthesis, inhibition of tyrosinase enzyme activity, and elimination of existing melanin in B16-F10 cells. Tables 1 and 2 below list the 5 skin treatment compounds and 17 skin treatment plant extracts evaluated, respectively.
The ability of the skin treatment compounds and plant extracts to eliminate existing melanin within skin cells was evaluated. Melanin is the pigment in skin cells that is responsible for coloring of the skin and various pigmentation disorders, such as age spots and freckles. Elimination of existing melanin inside a cell may result in lightening of the skin color and/or inhibit further darkening of the skin color. […]
(§2) B16-F10 cells were trypsinized using Trypsin-EDTA and cell density was determined. The cell slurry was diluted to a concentration of 18,000 cells per milliliter (mL) in a growth media containing RPMI 1640 supplemented with fetal bovine serum. The diluted cell slurry was dispensed into the wells of a 24 well cell culture plate at 1 mL per well (18,000 cells/well). The cells were incubated overnight at 37° C. and 5% CO2 in humid conditions.
Following the overnight incubation, the medium was discarded and replaced with 1 mL per well of growth media including 50 μM forskolin (Sigma Cat. #F6886) and 10 μM 8-Methoxypsoralen (8-MOP; Alfa Aesar Cat. #A17108). The cells were then incubated for 72 hours at 37° C. and 5% CO2 in humid conditions.
The medium in each well was discarded and replaced with 1 mL/well. 5 μL of the 200× dilution was added to each well. The treated cells were incubated for 72 hours at 37° C. and 5% CO2 in humid conditions. The skin lightening compounds and plant extracts were evaluated at concentrations of 0 (untreated), 10, 50, and 100 μg/mL. […]
When the treatment period was completed, the medium from each well was discarded and the cells were washed once with 1 mL per well of DPBS. The DPBS wash was removed and 150 μL of 1N sodium hydroxide was added to each well for 30 minutes while the cells were incubated at 80° C. to lyse the cells. Next, 145 μL from each well was transferred to a UV plate and the remaining 5 μL was tested to determine the protein concentration. The UV absorbance of each well was determined using a plate reader with the primary wave length set to 400 nm.
Melanin elimination was determined using the UV absorbance at 400 nm according to the following equation: % Inh=(Max signal−Compound signal)/(Max signal−Min signal)×100
Where “% Inh” is the percent of melanin eliminated from the cell, the “Max signal” is the UV absorption for cells treated with forskolin and 8-MOP, and the “Min signal” is the UV absorption of untreated cells.

[2] = biological target: T1, tyrosinase enzyme (Mus musculus, UniProt P11344); test: Tyrosinase enzyme activity inhibition in treated B16-F10 cells (L-DOPA); format: cell-based; details: 72 hours
T1 construct: endogenous in cells; host or cells: B16-F10 (ATCC# CRL-6475) mouse melanoma cells
T1 sequence (P11344 19-533): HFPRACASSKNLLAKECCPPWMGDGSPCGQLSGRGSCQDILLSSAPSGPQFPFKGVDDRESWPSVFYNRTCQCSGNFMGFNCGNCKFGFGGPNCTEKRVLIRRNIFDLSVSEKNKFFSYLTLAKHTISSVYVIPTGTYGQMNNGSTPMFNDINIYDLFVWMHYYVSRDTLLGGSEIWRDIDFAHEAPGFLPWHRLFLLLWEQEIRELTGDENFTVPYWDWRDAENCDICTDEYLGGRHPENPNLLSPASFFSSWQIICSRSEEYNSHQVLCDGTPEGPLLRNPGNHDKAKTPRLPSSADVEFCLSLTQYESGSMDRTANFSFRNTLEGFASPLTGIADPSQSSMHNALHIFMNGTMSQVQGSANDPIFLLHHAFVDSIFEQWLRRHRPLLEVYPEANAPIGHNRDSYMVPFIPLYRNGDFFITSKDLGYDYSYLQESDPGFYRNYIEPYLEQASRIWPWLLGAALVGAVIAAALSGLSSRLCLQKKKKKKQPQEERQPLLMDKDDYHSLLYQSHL
Protocol: The ability of the skin treatment compounds and plant extracts to inhibit tyrosinase enzyme activity was evaluated. Tyrosinase enzyme is involved in melanin production and thus inhibition of tyrosinase may suppress melanin production, which may result in lightening of skin color and/or inhibition of further darkening of skin color. Arbutin is a conventional plant-derived compound used in skin lightening treatments and was therefore selected for use as a positive control. B16-F10 cells were trypsinized using Trypsin-EDTA and cell density was determined. The cell slurry was diluted to a concentration of 18,000 cells per milliliter (mL) in a growth media containing RPMI 1640 supplemented with fetal bovine serum. […] Arbutin was evaluated at concentrations of 0 (untreated), 25, 125, and 250 μg/mL. […] The UV absorbance of each well was determined using a plate reader with the primary wave length set to 475 nm. Tyrosinase inhibition was determined using the UV absorbance at 475 nm according to the following equation: % Inh=(Max signal−Compound signal)/(Max signal−Min signal)×100 Where “% Inh” is the percent inhibition of tyrosinase, the “Max signal” is the UV absorption for cells treated with L-DOPA, and the “Min signal” is the UV absorption of cells not treated with L-DOPA.

[3] = tested on: B16-F10 cells; test: Melanin synthesis inhibition in B16-F10 cells; format: cell-based, Mus musculus (mouse); details: 100 μg/mL, 72 hours, average of two wells
Protocol: as §1
The ability of the skin treatment compounds and plant extracts to inhibit melanin synthesis was evaluated. Melanin is the pigment in skin cells that is responsible for coloring of the skin and various pigmentation disorders, such as age spots and freckles. Inhibition of melanin synthesis may result in lightening of the skin color and/or inhibit further darkening of the skin color. Arbutin is a conventional plant-derived compound used in skin lightening treatments and was therefore selected for use as a positive control.
as §2, with “Trypsin-EDTA (GIBCO Cat. #25200-072)” for “Trypsin-EDTA”, “1640 (GIBCO Cat. #22400-089)” for “1640”, “serum (GIBCO Cat. #10099-141).” for “serum.”, “plate (BD Falcon Cat. #353047)” for “plate”
The plated cells were treated by preparing a 200× dilution of each skin lightening compound, plant extract, and arbutin (i.e., the positive control; Sigma Cat. #A4256) in 100% dimethyl sulfoxide (DMSO; Sigma Cat. #D2650). 5 μL of the 200× dilution was added to each well. The treated cells were incubated for 72 hours at 37° C. and 5% CO2 in humid conditions. The skin lightening compounds and plant extracts were evaluated at concentrations of 0 (untreated), 10, 50, and 100 μg/mL. Arbutin was evaluated at concentrations of 0 (untreated), 25, 125, and 250 μg/mL.
When the treatment period was completed, the medium from each well was discarded and the cells were washed once with 1 mL per well of DPBS (Dulbecco's Phosphate-Buffered Saline; Biosera Cat. #LM-S2041). […] The UV absorbance of each well was determined using a plate reader with the primary wave length set to 400 nm.
Melanin synthesis inhibition was determined using the UV absorbance at 400 nm according to the following equation: % Inh=(Max signal−Compound signal)/(Max signal−Min signal)×100

[4] = tested on: B16-F10 cells; test: CellTiter-Glo (CTG) Luminescent Cell Viability Assay (cell toxicity); format: cell-based, Mus musculus (mouse); details: for IC50: Mus musculus, read-out: IC50 cellular toxicity, skin treatment compound/plant extract
Protocol: The toxicity of the skin treatment compounds and plant extracts was evaluated using the CellTiter-Glo® (CTG) Luminescent Cell Viability Assay from Promega Corporation. The assay determines the number of viable cells in culture based on quantitation of the ATP present, which is indicative of the presence of metabolically active cells.
The CellTiter-Glo® reagent was added to the cells and the luminescence was obtained according to the assay instructions provided by Promega Corporation. The IC50 was calculated for each skin treatment compound or plant extract and the corresponding positive control.

[5] = B16-F10 cells, 72 hours, 0.01 to 100 ug/mL, CellTiter-Glo

| Structure (SMILES) | % Melanin Elimination, skin treatment compound/plant extract [1] [%] | % Melanin Synthesis Inhibition, skin treatment compound/plant extract [3] | IC50 cellular toxicity, skin treatment compound/plant extract [4, 5] [µg/mL] | other results |
| --- | --- | --- | --- | --- |
| O=C(O)CCCC[C@@H]1CCSS1 (racemic) [Lipoic acid] | 65.7 | 30.3** % | >100 | % Tyrosinase Inhibition, skin treatment compound/plant extract ([2]; 100 μg/mL, average of two wells): 98.6% |
| OC[C@H]1O[C@@H](Oc2ccc(O)cc2)[C@H](O)[C@@H](O)[C@@H]1O [Arbutin] |  |  |  | % Tyrosinase Inhibition (Arbutin) ([2]; arbutin 125 μg/mL, control of the same line): 38.3% and 52.8% |
| CN[C@@H](C)[C@H]1[C@H](O)C[C@@]2(C)[C@@H]3CC[C@H]4C(C)(C)[C@@H](NC)CC[C@@]45C[C@@]35CC[C@]12C [Cyclovirobuxine D] | 92.4 | 53.2% | >100 |  |
| Oc1ccc(O)cc1 [Hydroquinone, reference compound] |  |  |  | % Melanin Elimination (hydroquinone control) ([1]; hydroquinone 100 μg/mL): 70.6%; IC50 cellular toxicity, Hydroquinone IC50 (corresponding positive control) ([4]; B16-F10 cells, 72 hours, hydroquinone positive control run with the substance of the same line): (7.0) μg/mL; also recorded: (4.2) μg/mL; also recorded: (4.1) μg/mL |
| COc1cc2c3c(c1OC)-c1ccccc1C[C@H]3N(C)CC2 [Nuciferine] | 34.1 |  |  | inhibition at 100 µg/mL ([3]; Mus musculus, read-out: % Melanin Synthesis Inhibition, skin treatment compound/plant extract): 104%; IC50 ([4]; B16-F10, 72 h): 62.2 µg/mL (≈ 211 µM) |
| C/C=C1/[C@H](O[C@@H]2O[C@H](CO)[C@@H](O)[C@H](O)[C@H]2O)OC=C(C(=O)OC)[C@H]1CC(=O)OCCc1ccc(O)c(O)c1 [Oleuropein] | 37.0 |  |  | IC50 [4, 5]: 90.3 µg/mL (≈ 167 µM) |
| CC1=C2C[C@H]3[C@@H](CC(=O)[C@H]4C[C@@H](O)CC[C@@]43C)[C@@H]2CC[C@]12O[C@@H]1C[C@H](C)CN[C@H]1[C@H]2C [Peimisine] | 23.8 | 62.1% | >50 |  |

— US10537516B2, “Composition for treating skin pigmentation and related methods” (Access Business Group International LLC, priority 2017, dated 2020)
